Columns and labels:
[1] = system: barnyardgrass; experiment: Test A postemergence; assay type: in vivo, Echinochloa crus-galli
In short: (§1)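 Greenhouse pot test, loam/sand soil. Formulation: non-phytotoxic solvent mix plus surfactant. Pre: directed spray onto soil after sowing. Post: plants at 1–2 leaf, 2–10 cm. Rated visually vs untreated controls at ~10 d, 0 (no effect) to 100 (complete control).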

[2] = system: wheat; experiment: Test A preemergence; assay type: in vivo, Triticum aestivum; conditions: for Wheat plant response rating (0 to 100 scale) / Plant response rating, Wheat: 125 g ai/ha
In short: as §1

[3] = system: pigweed; experiment: Test A preemergence; assay type: in vivo, Amaranthus retroflexus; conditions: for Pigweed plant response rating (0 to 100 scale) / Plant response rating, Pigweed: 125 g ai/ha
In short: as §1

[4] = system: corn; experiment: Test A preemergence; assay type: in vivo, Zea mays
In short: as §1

[5] = system: pigweed; experiment: Test A postemergence; assay type: in vivo, Amaranthus retroflexus
In short: as §1

[6] = system: Heteranthera limosa; experiment: Test B flooded paddy test; assay type: in vivo; conditions: Flood, 250 g ai/ha; 0 to 100 scale where 0 is no effect and 100 is complete control
In short: (§2)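 Evaluation is visual, against untreated controls, 13 to 15 days after treatment. Before treatment, plants reached the 2-leaf stage; pots were then flooded 3 cm deep, compound was added to the water, and that level was maintained. Ratings run 0 to 100, with 100 meaning complete control.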

[7] = system: large (Lg) crabgrass; experiment: Test A preemergence; assay type: in vivo, Digitaria sanguinalis
In short: as §1

[8] = system: giant foxtail; experiment: Test A postemergence; assay type: in vivo, Setaria faberii
In short: as §1

[9] = system: sedge, umbrella; experiment: Test B flooded paddy test; assay type: in vivo, Cyperus difformis; conditions: Flood, 250 g ai/ha; 0 to 100 scale where 0 is no effect and 100 is complete control
In short: as §2

[10] = system: velvetleaf; experiment: Test A preemergence; assay type: in vivo, Abutilon theophrasti; conditions: for Velvetleaf plant response rating (0 to 100 scale) / Plant response rating, Velvetleaf: 125 g ai/ha
In short: as §1

[11] = system: rice; experiment: Test B flooded paddy test; assay type: in vivo, Oryza sativa; conditions: Flood, 250 g ai/ha; 0 to 100 scale where 0 is no effect and 100 is complete control
In short: as §2

[12] = system: large (Lg) crabgrass; experiment: Test A postemergence; assay type: in vivo, Digitaria sanguinalis
In short: as §1

[13] = system: wheat; experiment: Test A postemergence; assay type: in vivo, Triticum aestivum
In short: as §1

[14] = system: corn; experiment: Test A postemergence; assay type: in vivo, Zea mays
In short: as §1

[15] = system: morningglory; experiment: Test A preemergence; assay type: in vivo, Ipomoea spp.; conditions: for Morningglory plant response rating (0 to 100 scale) / Plant response rating, Morningglory: 125 g ai/ha
In short: as §1

[16] = system: velvetleaf; experiment: Test A postemergence; assay type: in vivo, Abutilon theophrasti
In short: as §1

[17] = system: morningglory; experiment: Test A postemergence; assay type: in vivo, Ipomoea spp.
In short: as §1

[18] = system: giant foxtail; experiment: Test A preemergence; assay type: in vivo, Setaria faberii
In short: as §1

[19] = system: barnyardgrass; experiment: Test B flooded paddy test; assay type: in vivo, Echinochloa crus-galli; conditions: Flood, 250 g ai/ha; 0 to 100 scale where 0 is no effect and 100 is complete control
In short: as §2

[20] = system: barnyardgrass; experiment: Test A preemergence; assay type: in vivo, Echinochloa crus-galli
In short: as §1

[21] = 125 g ai/ha, 0 to 100 scale where 0 is no effect and 100 is complete control
[22] = 500 g ai/ha, 0 to 100 scale where 0 is no effect and 100 is complete control
[23] = 500 g ai/ha, 0 to 100 scale, 0 no effect, 100 complete control
[24] = 0 to 100 scale where 0 is no effect and 100 is complete control
[25] = 500 g ai/ha, 0 to 100 scale, 0 no effect, 100 complete control, approx. 10 days
[26] = 1000 g ai/ha, 0 to 100 scale, 0 no effect, 100 complete control
[27] = 1000 g ai/ha, 0 to 100 scale, 0 no effect, 100 complete control, approx. 10 days

O=Cc1cccc(Oc2ncc(F)cn2)c1-n1cc(C(F)(F)F)cn1 [Compound 162]
Barnyardgrass plant response rating [1, 21]: 0 | Plant response rating, Barnyardgrass [1, 22]: 10 | Wheat plant response rating (0 to 100 scale) [2]: 0 | Wheat plant response rating [2, 22]: 0 | Pigweed plant response rating (0 to 100 scale) [3]: 100 | Pigweed plant response rating [3, 22]: 100 | Plant response rating, Corn [4, 21]: 0 | Corn plant response rating [4, 22]: 0 | Pigweed plant response rating [5, 21]: 30 | Plant response rating, Pigweed [5, 22]: 70 | Plant response rating, Ducksalad [6]: 35 | Plant response rating, Crabgrass, Large [7, 21]: 0 | Crabgrass, Large plant response rating [7, 22]: 10 | Foxtail, Giant plant response rating [8, 21]: 0 | Plant response rating, Foxtail, Giant [8, 22]: 0 | Plant response rating, Sedge, Umbrella [9]: 40 | Velvetleaf plant response rating (0 to 100 scale) [10]: 10 | Velvetleaf plant response rating [10, 22]: 50 | Plant response rating, Rice [11]: 0 | Crabgrass, Large plant response rating [12, 21]: 0 | Plant response rating, Crabgrass, Large [12, 22]: 10 | Wheat plant response rating [13, 21]: 0 | Plant response rating, Wheat [13, 22]: 0 | Corn plant response rating [14, 21]: 0 | Plant response rating, Corn [14, 22]: 10 | Morningglory plant response rating (0 to 100 scale) [15]: 0 | Morningglory plant response rating [15, 22]: 0 | Velvetleaf plant response rating [16, 21]: 10 | Plant response rating, Velvetleaf [16, 22]: 50 | Morningglory plant response rating [17, 21]: 0 | Plant response rating, Morningglory [17, 22]: 10 | Plant response rating, Foxtail, Giant [18, 21]: 0 | Foxtail, Giant plant response rating [18, 22]: 0 | Plant response rating, Barnyardgrass [19]: 0 | Plant response rating, Barnyardgrass [20, 21]: 10 | Barnyardgrass plant response rating [20, 22]: 50

FC(F)(F)c1cccc(Oc2ncc(Cl)cn2)c1-n1cc(Br)cn1 [Compound 64]
Plant response rating, Barnyardgrass [1, 21]: 60 | Plant response rating, Barnyardgrass [1, 23]: 100 | Plant response rating, Wheat [2, 24]: 0 | Wheat plant response rating [2, 25]: 30 | Plant response rating, Pigweed [3, 24]: 90 | Pigweed plant response rating [3, 25]: 100 | Plant response rating, Corn [4, 21]: 0 | Corn plant response rating [4, 25]: 70 | Plant response rating, Pigweed [5, 21]: 100 | Plant response rating, Pigweed [5, 22]: 100 | Plant response rating, Ducksalad [6]: 70 | Plant response rating, Crabgrass, Large [7, 21]: 90 | Crabgrass, Large plant response rating [7, 25]: 90 | Plant response rating, Foxtail, Giant [8, 21]: 80 | Plant response rating, Foxtail, Giant [8, 22]: 100 | Plant response rating, Sedge, Umbrella [9]: 80 | Plant response rating, Velvetleaf [10, 24]: 40 | Velvetleaf plant response rating [10, 25]: 90 | Plant response rating, Rice [11]: 0 | Plant response rating, Crabgrass, Large [12, 21]: 80 | Plant response rating, Crabgrass, Large [12, 23]: 100 | Plant response rating, Wheat [13, 21]: 0 | Plant response rating, Wheat [13, 22]: 30 | Plant response rating, Corn [14, 21]: 30 | Plant response rating, Corn [14, 23]: 90 | Plant response rating, Morningglory [15, 24]: 0 | Morningglory plant response rating [15, 25]: 20 | Plant response rating, Velvetleaf [16, 21]: 100 | Plant response rating, Velvetleaf [16, 22]: 100 | Plant response rating, Morningglory [17, 21]: 60 | Plant response rating, Morningglory [17, 22]: 80 | Plant response rating, Foxtail, Giant [18, 21]: 90 | Foxtail, Giant plant response rating [18, 25]: 90 | Plant response rating, Barnyardgrass [19]: 0 | Plant response rating, Barnyardgrass [20, 21]: 60 | Barnyardgrass plant response rating [20, 25]: 100

FC(F)(F)c1ccn(-c2ccccc2Sc2ncc(Cl)cn2)n1 [Compound 28]
Plant response rating, Barnyardgrass [1, 21]: 0 | Plant response rating, Barnyardgrass [1, 23]: 10 | Plant response rating, Wheat [2, 24]: 0 | Wheat plant response rating [2, 25]: 0 | Plant response rating, Pigweed [3, 24]: 0 | Pigweed plant response rating [3, 25]: 40 | Plant response rating, Corn [4, 21]: 0 | Corn plant response rating [4, 25]: 0 | Plant response rating, Pigweed [5, 21]: 10 | Plant response rating, Pigweed [5, 23]: 30 | Plant response rating, Ducksalad [6]: 35 | Plant response rating, Crabgrass, Large [7, 21]: 0 | Crabgrass, Large plant response rating [7, 25]: 10 | Plant response rating, Foxtail, Giant [8, 21]: 0 | Plant response rating, Foxtail, Giant [8, 23]: 10 | Plant response rating, Sedge, Umbrella [9]: 0 | Plant response rating, Velvetleaf [10, 24]: 0 | Velvetleaf plant response rating [10, 25]: 0 | Plant response rating, Rice [11]: 0 | Plant response rating, Crabgrass, Large [12, 21]: 0 | Plant response rating, Crabgrass, Large [12, 23]: 20 | Plant response rating, Wheat [13, 21]: 0 | Plant response rating, Wheat [13, 23]: 0 | Plant response rating, Corn [14, 21]: 0 | Plant response rating, Corn [14, 23]: 20 | Plant response rating, Morningglory [15, 24]: 0 | Morningglory plant response rating [15, 25]: 0 | Plant response rating, Velvetleaf [16, 21]: 0 | Plant response rating, Velvetleaf [16, 23]: 30 | Plant response rating, Morningglory [17, 21]: 10 | Plant response rating, Morningglory [17, 23]: 10 | Plant response rating, Foxtail, Giant [18, 21]: 0 | Foxtail, Giant plant response rating [18, 25]: 10 | Plant response rating, Barnyardgrass [19]: 0 | Plant response rating, Barnyardgrass [20, 21]: 0 | Barnyardgrass plant response rating [20, 25]: 10

O=[N+]([O-])c1cnc(Oc2ccccc2-n2cc(Br)cn2)nc1 [Compound 225]
Barnyardgrass plant response rating [1, 21]: 0 | Plant response rating, Barnyardgrass [1, 22]: 10 | Wheat plant response rating (0 to 100 scale) [2]: 0 | Wheat plant response rating [2, 22]: 0 | Pigweed plant response rating (0 to 100 scale) [3]: 0 | Pigweed plant response rating [3, 22]: 0 | Corn plant response rating (0 to 100 scale) ([4]; 125 g ai/ha): 0 | Corn plant response rating [4, 22]: 0 | Pigweed plant response rating [5, 21]: 0 | Plant response rating, Pigweed [5, 22]: 0 | Plant response rating, Ducksalad [6]: 0 | Crabgrass, Large plant response rating (0 to 100 scale) ([7]; 125 g ai/ha): 0 | Crabgrass, Large plant response rating [7, 22]: 0 | Foxtail, Giant plant response rating [8, 21]: 0 | Plant response rating, Foxtail, Giant [8, 22]: 0 | Plant response rating, Sedge, Umbrella [9]: 0 | Velvetleaf plant response rating (0 to 100 scale) [10]: 0 | Velvetleaf plant response rating [10, 22]: 0 | Plant response rating, Rice [11]: 0 | Crabgrass, Large plant response rating [12, 21]: 0 | Plant response rating, Crabgrass, Large [12, 22]: 10 | Wheat plant response rating [13, 21]: 0 | Plant response rating, Wheat [13, 22]: 0 | Corn plant response rating [14, 21]: 0 | Plant response rating, Corn [14, 22]: 0 | Morningglory plant response rating (0 to 100 scale) [15]: 0 | Morningglory plant response rating [15, 22]: 0 | Velvetleaf plant response rating [16, 21]: 0 | Plant response rating, Velvetleaf [16, 22]: 0 | Morningglory plant response rating [17, 21]: 0 | Plant response rating, Morningglory [17, 22]: 0 | Foxtail, Giant plant response rating (0 to 100 scale) ([18]; 125 g ai/ha): 0 | Foxtail, Giant plant response rating [18, 22]: 0 | Plant response rating, Barnyardgrass [19]: 0 | Barnyardgrass plant response rating (0 to 100 scale, 0 is no effect, 100 is complete control) ([20]; 125 g ai/ha): 0 | Barnyardgrass plant response rating [20, 22]: 0

Clc1cnc(Oc2ccccc2-n2ccnn2)nc1 [Compound 217]
Plant response rating, Barnyardgrass [1, 26]: 30 | Wheat plant response rating [2, 27]: 0 | Pigweed plant response rating [3, 27]: 100 | Corn plant response rating [4, 27]: 0 | Plant response rating, Pigweed [5, 26]: 100 | Plant response rating, Ducksalad [6]: 0 | Crabgrass, Large plant response rating [7, 27]: 100 | Plant response rating, Foxtail, Giant [8, 26]: 50 | Plant response rating, Sedge, Umbrella [9]: 0 | Velvetleaf plant response rating [10, 27]: 100 | Plant response rating, Rice [11]: 0 | Plant response rating, Crabgrass, Large [12, 26]: 60 | Plant response rating, Wheat [13, 26]: 20 | Plant response rating, Corn [14, 26]: 0 | Morningglory plant response rating [15, 27]: 40 | Plant response rating, Velvetleaf [16, 26]: 100 | Plant response rating, Morningglory [17, 26]: 90 | Foxtail, Giant plant response rating [18, 27]: 90 | Plant response rating, Barnyardgrass [19]: 0 | Barnyardgrass plant response rating [20, 27]: 70
